# According to patent US20040082477A1, “Pyrrolecarboxamides for the use as fungicdes” (priority 2001, published 2004):
smiles,measurement,value
"Cn1cc(C(=O)Nc2ccccc2-c2ccc(Br)cc2)c(C(F)F)c1 [Compound 1.2, 1-methyl-4-difluoromethyl-1H-pyrrole-3-carboxylic acid (4′-bromobiphenyl-2-yl) amide]",melting point,166 to 167 °C
